# Target: T1, PIM-1 kinase (Homo sapiens, UniProt P11309)
# T1 construct: purchased Millipore 14-573
# Assay: PIM Kinase Activity Assay-IMAP Fluorescence Polarization Assay (PIM-1)
# Type: biochemical
# Conditions: 3 μM concentration
# Procedure: In the present invention, the PIM activities of the compounds were tested by BioDuro (Building E, No. 29 Life Science Park Road, Changping District, Beijing, 102206, P.R. China). The method used for testing is PIM Kinase Activity Assay-IMAP Fluorescence Polarization Assay PIM Kinase Activity Assay-IMAP Fluorescence Polarization Assay 1. Principle PIM kinases are serine/threonine protein kinases, and they can phosphorylate 5-FAM labeled small peptide substrates. Fluorescence polarization is less for non-phosphorylated substrates since that can not bind to the binder (metal binding nanoparticles). On the other hand, fluorescence polarization is more for phosphorylated substrates since that can bind to the binder. The level of 5-FAM labeled small peptide substrates phosphorylation reflects the activities of PIM kinase. By measuring their ability of inhibiting PIM kinase of the compounds of the present invention, their activities of inhibiting PIM kinases can be determined 2. Instrument EnVision (PerkinElmer, Waltham, Mass.) 3. Reagents and 384 well plates PIM1 (Millipore Cat. #14-573) (Millipore Corporation, Billerica, Mass.) PIM2 (Millipore Cat. #14-607) (Millipore Corporation, Billerica, Mass.) 5-FAM labeled peptide (5-FAM-RSRHSSYPAGT, AnaSpec Cat. #63801) (AnaSpec Inc., Fremont, Calif.) IMAP FP Screening Express kit (IMAP FP Screening kit) (Molecular Devices Cat. #R8127) (Molecular Devices, Sunnyvale, Calif.) IMAP Progressive binding reagent IMAP Progressive binding buffer A (5×) IMAP Progressive binding buffer B (5×) 384-well black plate (Corning Cat. #3573) (Corning, Midland Mich.) 4. Assay Buffer
# a) 10 mM compound stock solution is diluted to appropriate concentration with 100% DMSO, then diluted 10 fold to targeted concentration with test butter to keep DMSO concentration at 10%
# 1 ul of compound solution and 4 ul of enzyme (PIM-1 final concentration 0.025 nM, PIM-2 concentration 3 nM) is incubated at 23° C. for 15 min, 2.5 ul ATP (for PIM-1 and PIM-2, the final ATP concentrations are 30 uM and 5 uM respectively) 2.5 ul 5-FAM labeled peptide (final concentration 100 nM) was added to start the reaction. The reaction is run at 23° C. for 60 min DMSO is used in place of compound stock solution as maximum reference and assay buffer is used in place of enzyme as minimum reference. c) add 30 ul IMAP binding reagent (containing 75% IMAP Buffer A, 25% IMAP Buffer B, 1/600 dilution of beads) to stop the reaction, incubated at room temperature for 60 min d) Measure fluorescence polarization, excitation wavelength: 485 nm, emission wavelength 530 nm. 6. Data process IC50 values were calculated using Graphpad Prism®.
# T1 sequence (P11309 whole entry): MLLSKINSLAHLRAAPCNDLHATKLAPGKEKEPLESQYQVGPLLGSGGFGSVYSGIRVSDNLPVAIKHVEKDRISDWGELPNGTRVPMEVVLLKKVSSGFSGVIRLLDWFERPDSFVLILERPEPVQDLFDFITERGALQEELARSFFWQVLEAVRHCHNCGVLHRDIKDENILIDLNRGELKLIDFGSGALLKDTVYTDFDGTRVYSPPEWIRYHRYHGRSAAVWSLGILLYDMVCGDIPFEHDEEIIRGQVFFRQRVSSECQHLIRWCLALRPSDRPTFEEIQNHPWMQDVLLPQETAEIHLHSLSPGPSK
row,Compound,inhibition at 3 µM [%]
1,"O=C(Nc1cnsc1N1CCc2c(O)cccc2C1)c1cccc(-c2c(F)cccc2F)n1 [Compound 52, 6-(2,6-difluorophenyl)-N-(5-(5-hydroxy-3,4-dihydroisoquinolin-2(1H)-yl)isothiazol-4-yl)picolinamide]",20 to 50
2,"O=C(Nc1cnsc1N1CCOCC1)c1csc(C2COc3ccccc3O2)n1 (stereo not shown) [Compound 28, 2-(2,3-dihydrobenzo[b][1,4]dioxin-2-yl)-N-(5-morpholinoisothiazol-4-yl)thiazole-4-carboxamide]",20 to 50
3,"CC(C)(C)OC(=O)N1CCC(c2nc(C(=O)Nc3cnsc3N3CCOCC3)cs2)CC1 [Compound 25, tert-butyl 4-(4-((5-morpholinoisothiazol-4-yl)carbamoyl)thiazol-2-yl)piperidine-1-carboxylate]",20 to 50
4,"O=C(Nc1cnsc1N1CCNCC1)c1csc(N2CCOCC2)n1 [Compound 36, 2-morpholino-N-(5-(piperazin-1-yl)isothiazol-4-yl)thiazole-4-carboxamide]",20 to 50
5,"O=C(Nc1cnsc1N1CCOCC1)c1csc(C2CCNCC2)n1 [Compound 26, N-(5-morpholinoisothiazol-4-yl)-2-(piperidin-4-yl)thiazole-4-carboxamide]",20 to 50

# More lines, now with the values ahead:
row,inhibition at 3 µM [%],Compound
1,20 to 50,"O=C(Nc1cnsc1N1CCNCC1)c1coc(-c2ccccc2)n1 [Compound 43, 2-phenyl-N-(5-(piperazin-1-yl)isothiazol-4-yl)oxazole-4-carboxamide]"
2,20 to 50,"O=C(Nc1cnsc1N1CCNCC1)c1csc(C2COc3ccccc3O2)n1 (stereo not shown) [Compound 40, 2-(2,3-dihydrobenzo[b][1,4]dioxin-2-yl)-N-(5-(piperazin-1-yl)isothiazol-4-yl)thiazole-4-carboxamide]"
3,20 to 50,"Cc1cc(C(=O)Nc2cnsc2N2CCNCC2)nn1-c1ccccc1F [Compound 41, 1-(2-fluorophenyl)-5-methyl-N-(5-(piperazin-1-yl)isothiazol-4-yl)-1H-pyrazole-3-carboxamide]"
4,20 to 50,"CC(=O)Nc1nc(C(=O)Nc2cnsc2N2CCNCC2)cs1 [Compound 39, 2-acetamido-N-(5-(piperazin-1-yl)isothiazol-4-yl)thiazole-4-carboxamide]"
5,20 to 50,"O=C(Nc1cnsc1N1CCNCC1)c1cc(-c2ccccc2F)n[nH]1 [Compound 42, 3-(2-fluorophenyl)-N-(5-(piperazin-1-yl)isothiazol-4-yl)-1H-pyrazole-5-carboxamide]"
